Results: BindingDB's records for doi:10.1021/jm8013458 (University of Copenhagen, 2009)

Key:
[1] = molecular target: Excitatory amino acid transporter 2 (Homo sapiens, UniProt P43004); assay: Displacement of [3H]D-Asp from human EAAT2 receptor expressed in HEK293 cells
[2] = molecular target: T1, Excitatory amino acid transporter 3 (Homo sapiens, UniProt P43005); assay: Displacement of [3H]D-Asp from human EAAT3 receptor expressed in HEK293 cells
T1 sequence (P43005 whole entry): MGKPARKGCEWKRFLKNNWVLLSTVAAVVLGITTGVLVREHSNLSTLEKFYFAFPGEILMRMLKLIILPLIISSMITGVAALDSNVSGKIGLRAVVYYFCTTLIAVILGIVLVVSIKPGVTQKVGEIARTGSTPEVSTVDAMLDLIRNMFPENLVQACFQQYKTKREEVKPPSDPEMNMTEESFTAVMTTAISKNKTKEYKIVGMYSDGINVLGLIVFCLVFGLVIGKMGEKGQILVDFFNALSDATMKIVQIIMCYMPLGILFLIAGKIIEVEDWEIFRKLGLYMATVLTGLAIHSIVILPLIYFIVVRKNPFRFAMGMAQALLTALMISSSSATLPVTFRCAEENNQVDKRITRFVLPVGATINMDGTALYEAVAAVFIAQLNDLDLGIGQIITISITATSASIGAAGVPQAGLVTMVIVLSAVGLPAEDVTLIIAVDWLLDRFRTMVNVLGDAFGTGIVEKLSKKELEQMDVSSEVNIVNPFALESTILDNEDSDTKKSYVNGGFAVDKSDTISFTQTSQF

[3] = molecular target: Excitatory amino acid transporter 1 (Homo sapiens, UniProt P43003); assay: Displacement of [3H]D-Asp from human EAAT1 receptor expressed in HEK293 cells
Chain of Excitatory amino acid transporter 1 (P43003 whole entry): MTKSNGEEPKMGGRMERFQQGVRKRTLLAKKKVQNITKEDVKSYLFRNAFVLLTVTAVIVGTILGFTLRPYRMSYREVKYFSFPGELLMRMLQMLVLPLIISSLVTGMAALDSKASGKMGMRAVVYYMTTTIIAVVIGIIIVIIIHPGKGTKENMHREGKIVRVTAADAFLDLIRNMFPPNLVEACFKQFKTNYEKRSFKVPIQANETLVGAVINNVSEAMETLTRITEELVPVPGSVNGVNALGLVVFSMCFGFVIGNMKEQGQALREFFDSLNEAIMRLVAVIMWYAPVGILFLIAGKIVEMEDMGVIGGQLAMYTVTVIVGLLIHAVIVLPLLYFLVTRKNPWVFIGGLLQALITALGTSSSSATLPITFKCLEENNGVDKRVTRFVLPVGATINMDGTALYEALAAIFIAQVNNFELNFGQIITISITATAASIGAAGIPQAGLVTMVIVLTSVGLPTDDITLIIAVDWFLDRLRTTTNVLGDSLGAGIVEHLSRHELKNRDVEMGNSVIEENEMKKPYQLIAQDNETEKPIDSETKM

Chain of Excitatory amino acid transporter 2 (P43004 whole entry): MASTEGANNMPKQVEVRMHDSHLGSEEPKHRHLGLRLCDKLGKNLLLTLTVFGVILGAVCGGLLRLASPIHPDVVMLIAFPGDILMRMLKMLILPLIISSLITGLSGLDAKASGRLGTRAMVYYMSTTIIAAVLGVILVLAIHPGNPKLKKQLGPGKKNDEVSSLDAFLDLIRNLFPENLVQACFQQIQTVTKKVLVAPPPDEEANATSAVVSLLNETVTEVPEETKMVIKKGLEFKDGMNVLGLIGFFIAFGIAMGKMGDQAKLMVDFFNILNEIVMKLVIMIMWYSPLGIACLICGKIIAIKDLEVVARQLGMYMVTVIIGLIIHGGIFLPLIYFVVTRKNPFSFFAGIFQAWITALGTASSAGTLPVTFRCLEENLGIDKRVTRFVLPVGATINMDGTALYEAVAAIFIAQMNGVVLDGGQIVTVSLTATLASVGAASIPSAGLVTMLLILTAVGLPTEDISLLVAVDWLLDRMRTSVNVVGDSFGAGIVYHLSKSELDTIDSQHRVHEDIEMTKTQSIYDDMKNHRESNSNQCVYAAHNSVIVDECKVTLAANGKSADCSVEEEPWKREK

SMILES	IC50 [1] [µM]	IC50 [2] [µM]	IC50 [3] [µM]
N#CC1C(=N)OC2=C(C(=O)CC(c3ccccc3)C2)C1c1ccc2c(c1)OCO2 (centres undefined)	> 300	> 300	–
COc1ccc(C2C3=C(CC(c4ccc(OC)c(OC)c4)CC3=O)OC(=N)C2C#N)cc1 (centres undefined) [2-Amino-4-(4-methoxyphenyl)-7-(3,4-dimethoxyphenyl)-5-oxo-5,6,7,8-tetrahydro-4H-chromene-3-carbonitrile]	> 300	> 300	–
COc1ccc(C2C3=C(CC(c4cccc5ccccc45)CC3=O)OC(=N)C2C#N)cc1 (centres undefined) [2-Amino-4-(4-methoxyphenyl)-7-(naphthalene-1-yl)-5-oxo-5,6,7,8-tetrahydro-4H-chromene-3-carbonitrile]	> 300	> 300	0.66
N#CC1CC2=C(CC(c3ccccc3)CC2=O)OC1=N (centres undefined) [2-Amino-5-oxo-7-phenyl-5,6,7,8-tetrahydro-4H-chromene-3-carbonitrile]	> 300	> 300	> 300
COc1cccc(C2C3=C(CC(c4ccccc4)CC3=O)OC(=N)C2C#N)c1OC (centres undefined) [2-amino-4-(2,3-dimethoxyphenyl)-5-oxo-7-phenyl-5,6,7,8-tetrahydro-4H-chromene-3-carbonitrile]	–	–	50.1
N#CC1C(=N)OC2=C(C(=O)CCC2)C1c1ccccc1F (centres undefined) [2-amino-4-(2-fluorophenyl)-5-oxo-5,6,7,8-tetrahydro-4H-chromene-3-carbonitrile]	> 300	> 300	> 300
CSc1ccc(C2C3=C(CC(c4ccccc4)CC3=O)OC(=N)C2C#N)cc1 (centres undefined) [2-amino-4-(4-(methylthio)phenyl)-5-oxo-7-phenyl-5,6,7,8-tetrahydro-4H-chromene-3-carbonitrile]	> 100	> 100	–
N#CC1C(=N)OC2=C(C(=O)CC(c3cccs3)C2)C1c1ccc([N+](=O)[O-])cc1 (centres undefined) [2-amino-4-(4-nitrophenyl)-5-oxo-7-(thiophen-2-yl)-5,6,7,8-tetrahydro-4H-chromene-3-carbonitrile]	> 300	> 300	–
N#CC1C(=N)OC2=C(C(=O)CC(c3ccccc3)C2)C1c1ccc([N+](=O)[O-])cc1 (centres undefined) [2-amino-4-(4-nitrophenyl)-5-oxo-7-phenyl-5,6,7,8-tetrahydro-4H-chromene-3-carbonitrile]	> 100	> 100	3.6

More lines, now with the values ahead:

IC50 [1] [µM]	IC50 [2] [µM]	IC50 [3] [µM]	SMILES
> 300	> 300	> 300	CC1CC(=O)C2=C(C1)OC(=N)C(C#N)C2c1ccc2c(c1)OCO2 (centres undefined) [2-amino-4-(benzo[d][1,3]dioxol-5-yl)-7-methyl-5-oxo-5,6,7,8-tetrahydro-4H-chromene-3-carbonitrile]
> 100	> 100	–	N#CC1C(=N)OC2=C(C(=O)CC(c3ccccc3)C2)C1c1ccc(-c2ccccc2)cc1 (centres undefined) [2-amino-4-(biphenyl-4-yl)-5-oxo-7-phenyl-5,6,7,8-tetrahydro-4H-chromene-3-carbonitrile]
> 100	> 100	3.6	N#CC1C(=N)OC2=C(C(=O)CC(c3ccccc3)C2)C1c1ccc2ccccc2c1 (centres undefined) [2-amino-4-(naphthalen-2-yl)-5-oxo-7-phenyl-5,6,7,8-tetrahydro-4H-chromene-3-carbonitrile]
> 100	> 100	30	N#CC1C(=N)OC2=C(C(=O)CC(c3ccccc3)C2)C1Cc1ccccc1 (centres undefined) [2-amino-4-benzyl-5-oxo-7-phenyl-5,6,7,8-tetrahydro-4H-chromene-3-carbonitrile]
> 316	> 300	–	CC1C2=C(CC(c3ccccc3)CC2=O)OC(=N)C1C#N (centres undefined) [2-amino-4-methyl-5-oxo-7-phenyl-5,6,7,8-tetrahydro-4H-chromene-3-carbonitrile]
> 300	> 300	30	N#CC1C(=N)OC2=C(C(=O)CC(c3ccccc3)C2)C1c1cccnc1 (centres undefined) [2-amino-5-oxo-7-phenyl-4-(pyridin-3-yl)-5,6,7,8-tetrahydro-4H-chromene-3-carbonitrile]
> 300	> 300	–	COc1ccc(C2C3=C(CC(c4ccccc4Cl)CC3=O)OC(=N)C2C#N)cc1 (centres undefined) [2-amino-7-(2-chlorophenyl)-4-(4-methoxyphenyl)-5-oxo-5,6,7,8-tetrahydro-4H-chromene-3-carbonitrile]
> 300	> 300	–	N#CC1C(=N)OC2=C(C(=O)CC(c3ccco3)C2)C1c1ccccc1 (centres undefined) [2-amino-7-(furan-2-yl)-5-oxo-4-phenyl-5,6,7,8-tetrahydro-4H-chromene-3-carbonitrile]
> 300	> 300	100	COc1ccc(C2C3=C(CC(c4ccco4)CC3=O)OC(=N)C2C#N)cc1OC(=O)N1CCOCC1 (centres undefined) [5-(2-amino-3-cyano-7-(furan-2-yl)-5-oxo-5,6,7,8-tetrahydro-4H-chromen-4-yl)-2-methoxyphenyl morpholine-4-carboxylate]
